# Data reported in PubChem BioAssay AID180 (DTP/NCI, 2004).
# Where “and” joins values, the source holds several entries; their conditions need not be identical. Identical values can stand only once.
# System: BDF1 mice, Adenocarcinoma 755 s.c., tumor weight T/C
# Assay: NCI In Vivo Anticancer Drug Screen. Data for tumor model Adenocarcinoma 755 (subcutaneous) in B6D2F1 (BDF1) mice
# Details: endpoint: mean tumor weight, higher = larger tumour
# Procedure, shortened: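 Values express treated (T) relative to vehicle-dosed control (C) animals, based on survival or tumour size measured after compound treatment of mice bearing a transplanted tumour.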
smiles,measurement,setting,value
Cc1cccc(-c2c3ccccc3cc3c2ccc2ccccc23)c1,T/C,"dose: 30.0 mg/kg/injection, schedule: Q01DX011 (ip), vehicle: methylcellulose (MC)",96 % of control
same,T/C,"dose: 60.0 mg/kg/injection, schedule: Q01DX011 (ip), vehicle: methylcellulose (MC)",76 % of control
same,T/C,"dose: 120.0 mg/kg/injection, schedule: Q01DX011 (ip), vehicle: methylcellulose (MC)",79 % of control
same,T/C,"dose: 240.0 mg/kg/injection, schedule: Q01DX011 (ip), vehicle: methylcellulose (MC)",119 % of control
Cc1nc(Cl)c(C#N)c(C(F)(F)F)c1N,T/C,"dose: 100.0 mg/kg/injection, schedule: Q01DX011 (ip), vehicle: carboxymethylcellulose (CMC)",153 % of control
O=C(O)CCc1c[nH]c2ccc(N(CCCl)CCCl)cc12,T/C,"dose: 1.2 mg/kg/injection, schedule: Q01DX011 (ip), vehicle: carboxymethylcellulose (CMC)",90 % of control
same,T/C,"dose: 2.5 mg/kg/injection, schedule: Q01DX011 (ip), vehicle: carboxymethylcellulose (CMC)",64 % of control
same,T/C,"dose: 5.0 mg/kg/injection, schedule: Q01DX011 (ip), vehicle: carboxymethylcellulose (CMC)",74 % of control
COc1ccc(C[C@H](N)C(=O)NC2C(CO)OC(n3cnc4c(N(C)C)ncnc43)C2O)cc1 (some centres undefined),T/C,"dose: 9.94 mg/kg/injection, schedule: Q01DX011 (ip), vehicle: carboxymethylcellulose (CMC)",104 % of control
same,T/C,"dose: 13.25 mg/kg/injection, schedule: Q01DX011 (ip), vehicle: carboxymethylcellulose (CMC)",119 % of control
same,T/C,"dose: 17.06 mg/kg/injection, schedule: Q01DX011 (ip), vehicle: carboxymethylcellulose (CMC)",73 % of control
same,T/C,"dose: 19.88 mg/kg/injection, schedule: Q01DX011 (ip), vehicle: carboxymethylcellulose (CMC)",174 % of control
same,T/C,"dose: 23.0 mg/kg/injection, schedule: Q01DX011 (ip), vehicle: carboxymethylcellulose (CMC)",67 % of control
same,T/C,"dose: 26.5 mg/kg/injection, schedule: Q01DX011 (ip), vehicle: carboxymethylcellulose (CMC)",70 % of control
same,T/C,"dose: 31.8 mg/kg/injection, schedule: Q01DX011 (ip), vehicle: carboxymethylcellulose (CMC)",47 % of control and 48 % of control
same,T/C,"dose: 34.13 mg/kg/injection, schedule: Q01DX011 (ip), vehicle: carboxymethylcellulose (CMC)",57 % of control
same,T/C,"dose: 45.0 mg/kg/injection, schedule: Q01DX011 (ip), vehicle: carboxymethylcellulose (CMC)",70 % of control
same,T/C,"dose: 68.25 mg/kg/injection, schedule: Q01DX011 (ip), vehicle: carboxymethylcellulose (CMC)",50 % of control
same,T/C,"dose: 79.5 mg/kg/injection, schedule: Q01DX011 (ip), vehicle: carboxymethylcellulose (CMC)",14 % of control
same,T/C,"dose: 90.0 mg/kg/injection, schedule: Q01DX011 (ip), vehicle: carboxymethylcellulose (CMC)",51 % of control
C=CC(CN1CC1)OC(C)=O (centres undefined),T/C,"dose: 0.25 mg/kg/injection, schedule: Q01DX011 (sc), vehicle: saline",97 % of control
same,T/C,"dose: 0.5 mg/kg/injection, schedule: Q01DX010 (oral), vehicle: saline",28 % of control
same,T/C,"dose: 0.5 mg/kg/injection, schedule: Q01DX011 (ip), vehicle: methylcellulose (MC)",62 % of control
same,T/C,"dose: 0.5 mg/kg/injection, schedule: Q01DX011 (sc), vehicle: saline",94 % of control
same,T/C,"dose: 1.0 mg/kg/injection, schedule: Q01DX006 (iv), vehicle: saline",63 % of control
same,T/C,"dose: 1.0 mg/kg/injection, schedule: Q01DX010 (oral), vehicle: saline",21 % of control
same,T/C,"dose: 1.0 mg/kg/injection, schedule: Q01DX011 (ip), vehicle: methylcellulose (MC)",49 % of control
same,T/C,"dose: 1.0 mg/kg/injection, schedule: Q01DX011 (sc), vehicle: saline",83 % of control
same,T/C,"dose: 1.0 mg/kg/injection, schedule: Q02DX004 (im), vehicle: saline",93 % of control
same,T/C,"dose: 1.24 mg/kg/injection, schedule: Q01DX011 (ip), vehicle: carboxymethylcellulose (CMC)",202 % of control
same,T/C,"dose: 1.6 mg/kg/injection, schedule: Q01DX011 (ip), vehicle: carboxymethylcellulose (CMC)",36 % of control
same,T/C,"dose: 1.69 mg/kg/injection, schedule: Q01DX011 (ip), vehicle: carboxymethylcellulose (CMC)",81 % of control
same,T/C,"dose: 1.81 mg/kg/injection, schedule: Q01DX011 (ip), vehicle: carboxymethylcellulose (CMC)",76 % of control
same,T/C,"dose: 2.0 mg/kg/injection, schedule: Q01DX006 (iv), vehicle: saline",66 % of control
same,T/C,"dose: 2.0 mg/kg/injection, schedule: Q01DX010 (oral), vehicle: saline",9 % of control
same,T/C,"dose: 2.0 mg/kg/injection, schedule: Q01DX011 (sc), vehicle: saline",47 % of control
same,T/C,"dose: 2.0 mg/kg/injection, schedule: Q02DX004 (im), vehicle: saline",68 % of control
same,T/C,"dose: 2.48 mg/kg/injection, schedule: Q01DX011 (ip), vehicle: carboxymethylcellulose (CMC)",79 % of control
same,T/C,"dose: 2.7 mg/kg/injection, schedule: Q01DX011 (ip), vehicle: carboxymethylcellulose (CMC)",33 % of control
same,T/C,"dose: 3.2 mg/kg/injection, schedule: Q01DX011 (ip), vehicle: carboxymethylcellulose (CMC)",77 % of control
same,T/C,"dose: 3.25 mg/kg/injection, schedule: Q01DX011 (oral), vehicle: saline",50 % of control
same,T/C,"dose: 3.63 mg/kg/injection, schedule: Q01DX011 (ip), vehicle: carboxymethylcellulose (CMC)",51 % of control
same,T/C,"dose: 3.96 mg/kg/injection, schedule: Q01DX011 (ip), vehicle: carboxymethylcellulose (CMC)",29 % of control and 45 % of control
same,T/C,"dose: 4.0 mg/kg/injection, schedule: Q01DX006 (iv), vehicle: saline",38 % of control
same,T/C,"dose: 4.0 mg/kg/injection, schedule: Q01DX010 (oral), vehicle: saline",7 % of control
same,T/C,"dose: 4.0 mg/kg/injection, schedule: Q01DX011 (sc), vehicle: saline",19 % of control and 40 % of control
same,T/C,"dose: 4.0 mg/kg/injection, schedule: Q02DX004 (im), vehicle: saline",57 % of control
same,T/C,"dose: 6.0 mg/kg/injection, schedule: Q01DX011 (ip), vehicle: carboxymethylcellulose (CMC)",26 % of control
same,T/C,"dose: 6.4 mg/kg/injection, schedule: Q01DX011 (ip), vehicle: carboxymethylcellulose (CMC)",26 % of control
same,T/C,"dose: 6.6 mg/kg/injection, schedule: Q01DX011 (ip), vehicle: carboxymethylcellulose (CMC)",7 % of control and 19 % of control
same,T/C,"dose: 6.75 mg/kg/injection, schedule: Q01DX011 (ip), vehicle: carboxymethylcellulose (CMC)",21 % of control
same,T/C,"dose: 7.25 mg/kg/injection, schedule: Q01DX011 (ip), vehicle: carboxymethylcellulose (CMC)",10 % of control
same,T/C,"dose: 7.5 mg/kg/injection, schedule: Q01DX011 (ip), vehicle: saline",2 % of control and 8 % of control
same,T/C,"dose: 7.5 mg/kg/injection, schedule: Q01DX011 (oral), vehicle: saline",19 % of control
same,T/C,"dose: 8.0 mg/kg/injection, schedule: Q01DX006 (iv), vehicle: saline",16 % of control
same,T/C,"dose: 8.0 mg/kg/injection, schedule: Q01DX011 (ip), vehicle: carboxymethylcellulose (CMC)",14 % of control
same,T/C,"dose: 8.0 mg/kg/injection, schedule: Q01DX011 (sc), vehicle: saline",9 % of control
same,T/C,"dose: 8.0 mg/kg/injection, schedule: Q02DX004 (im), vehicle: saline",27 % of control
same,T/C,"dose: 9.9 mg/kg/injection, schedule: Q01DX011 (ip), vehicle: carboxymethylcellulose (CMC)",8 % of control and 11 % of control
same,T/C,"dose: 12.0 mg/kg/injection, schedule: Q01DX011 (ip), vehicle: carboxymethylcellulose (CMC)",3 % of control
same,T/C,"dose: 15.0 mg/kg/injection, schedule: Q01DX011 (ip), vehicle: saline",1 % of control
same,T/C,"dose: 62.5 micrograms/kg/injection, schedule: Q01DX011 (oral), vehicle: saline",51 % of control
same,T/C,"dose: 125.0 micrograms/kg/injection, schedule: Q01DX011 (oral), vehicle: saline",37 % of control
same,T/C,"dose: 250.0 micrograms/kg/injection, schedule: Q01DX011 (oral), vehicle: saline",72 % of control
same,T/C,"dose: 500.0 micrograms/kg/injection, schedule: Q01DX011 (oral), vehicle: saline",86 % of control
Nc1nc(N)c(N=O)c(Nc2ccc(Cl)c(Cl)c2)n1,T/C,"dose: 1.75 mg/kg/injection, schedule: Q01DX011 (ip), vehicle: methylcellulose (MC)",90 % of control
same,T/C,"dose: 3.0 mg/kg/injection, schedule: Q01DX011 (ip), vehicle: carboxymethylcellulose (CMC)",76 % of control
same,T/C,"dose: 3.5 mg/kg/injection, schedule: Q01DX011 (ip), vehicle: methylcellulose (MC)",77 % of control
same,T/C,"dose: 4.0 mg/kg/injection, schedule: Q01DX011 (ip), vehicle: methylcellulose (MC)",61 % of control
same,T/C,"dose: 6.0 mg/kg/injection, schedule: Q01DX011 (ip), vehicle: methylcellulose (MC)",50 % of control
same,T/C,"dose: 7.0 mg/kg/injection, schedule: Q01DX011 (ip), vehicle: carboxymethylcellulose (CMC)",57 % of control
same,T/C,"dose: 7.0 mg/kg/injection, schedule: Q01DX011 (ip), vehicle: methylcellulose (MC)",48 % of control
same,T/C,"dose: 14.0 mg/kg/injection, schedule: Q01DX011 (ip), vehicle: carboxymethylcellulose (CMC)",45 % of control and 50 % of control
same,T/C,"dose: 14.0 mg/kg/injection, schedule: Q01DX011 (ip), vehicle: methylcellulose (MC)",25 % of control and 44 % of control
same,T/C,"dose: 28.0 mg/kg/injection, schedule: Q01DX011 (ip), vehicle: methylcellulose (MC)",21 % of control
same,T/C,"dose: 57.0 mg/kg/injection, schedule: Q01DX011 (ip), vehicle: carboxymethylcellulose (CMC)",66 % of control
same,T/C,"dose: 57.0 mg/kg/injection, schedule: Q01DX011 (ip), vehicle: methylcellulose (MC)",18 % of control
same,T/C,"dose: 114.0 mg/kg/injection, schedule: Q01DX011 (ip), vehicle: carboxymethylcellulose (CMC)",63 % of control
same,T/C,"dose: 228.0 mg/kg/injection, schedule: Q01DX011 (ip), vehicle: carboxymethylcellulose (CMC)",8 % of control
